Results: patent US20260335453A1, “ISOINDOLINONE-GLUTARIMIDE ANTIBODY CONJUGATES, AND USES THEREOF” (FIREFLY BIO, INC., priority 2023, published 2026)

Tests used:
CAL51 cells [1] = experiment: Cell proliferation (Cell Titer Glow), CAL51; type: cell-based; conditions: Homo sapiens, CAL-51; IG compounds, cell killing, 72 h
Method: (§1) Exemplary isoindolinone-glutarimide (IG) compounds of Table 1a, 1b and 1c were prepared and characterized according to the Examples herein. Certain exemplary IG compounds of(Table 1a were tested for their effects in inhibiting cellular proliferation, including CAL1 WSU-DLCL2, NCI-N87 and SKBR3. CAL51 is a human breast adenocarcinoma cell line with triple-negative status for expression of estrogen, progesterone and HER2 receptors. WSU-DLCL2 is a human B-Cell non-Hodgkin lymphoma cell line that expresses high levels of CD22. NCI-N87 is a human epithelial cell line established from a gastric carcinoma; SKBR3 is a human epithelial cell line established from a breast adenocarcinoma; both NCI-N87 and SKBR3 cell lines express high levels of HER2 receptor. […]
(§2) One day prior to treatment with compounds or IGAC, cells were plated in white 96-well plates (SKBR: 3000 cells/well; CAL-51: 4000 cells/well). Compounds or ADCs were added in a serial-dilution manner reaching the indicated concentrations. Plates were incubated at 37 degrees for 96h (ADCs) or 72h (compounds) whereafter a 1:10 dilution of Cell Titer Glow was used to measure relative cell numbers after 10 min of incubation at room temperature.

CAL51 cells [2] = experiment: Degradation assay evaluated by immunofluorescence staining, CAL51; type: cell-based, human; conditions: Homo sapiens, CAL-51, CAL51, 6 h
Method: (§3) One day prior to treatment with compounds, black 96 well plates were coated with fibronectin (0.2 μg/ml in PBS) for 45 min at room temperature and subsequently washed with PBS. CAL-51 or SKBR3 cells were seeded at 30K cells/well (1001) and incubated overnight at 37° C. whereafter compounds were added reaching indicated concentrations. 6 h after treatment the medium was removed, cells were washed with PBS and fixed with 10% formalin for 20 mins at room temperature. Following two PBS washes (150 μl), cells were permeabilized in 0.1% Triton X-100 in PBS for 8 mins at room temperature and subsequently washed again twice with PBS. Cells were blocked thereafter with 1% BSA in PBS for 45 mins. Primary antibody was diluted in blocking buffer and incubated with the cells overnight at 4° C. After three washes with PBS, cells were incubated with secondary antibody for 1 h at RT, washed and subsequently images were taken on an Operetta High-Content Imager.
(§4) For the determination of the DC50, a custom algorithm implemented in the PerkinElmer image analysis software Harmony-Acapella® was used.

SKBR3 cells [3] = experiment: Degradation assay evaluated by immunofluorescence staining, SKBR3; type: cell-based; conditions: Homo sapiens, SK-BR-3, SKBR3, 6 h
Method: as §3, §4

SKBR3 cells [4] = experiment: Cell proliferation (Cell Titer Glow), SKBR3; type: cell-based; conditions: Homo sapiens, SK-BR-3; IG compounds, cell killing, 72 h
Method: as §1, §2

NCI-N87 cells = experiment: Cell proliferation (Cell Titer Glow), NCI-N87; type: cell-based; conditions: Homo sapiens, IG compounds, cell killing, 72 h
Method: (§5) Exemplary isoindolinone-glutarimide (IG) compounds of Table 1a, 1b and 1c were prepared and characterized according to the Examples herein. Certain exemplary IG compounds of(Table 1a were tested for their effects in inhibiting cellular proliferation, including CAL1 WSU-DLCL2, NCI-N87 and SKBR3. CAL51 is a human breast adenocarcinoma cell line with triple-negative status for expression of estrogen, progesterone and HER2 receptors. WSU-DLCL2 is a human B-Cell non-Hodgkin lymphoma cell line that expresses high levels of CD22. NCI-N87 is a human epithelial cell line established from a gastric carcinoma; SKBR3 is a human epithelial cell line established from a breast adenocarcinoma; both NCI-N87 and SKBR3 cell lines express high levels of HER2 receptor.
(§6) Exemplary embodiments of the isoindolinone-glutarimide antibody conjugates (IGAC) of Formula I are compiled in Table 3. Assessment of IGAC biological activity and other properties may be conducted according to the methods of Example 102. In some instances, the Cell proliferation dose response IC50 value is an average of repetitive assays. Certain exemplary IGAC were tested for their effects in inhibiting cellular proliferation, including CAL51; WSU-DLCL2, NCI-N87 and SKBR3 cell lines. CAL51 is a human breast adenocarcinoma cell line with triple-negative status for expression of estrogen, progesterone and HER2 receptors. WSU-DLCL2 is a human B-Cell non-Hodgkin lymphoma cell line that expresses high levels of CD22. NCI-N87 is a human epithelial cell line established from a gastric carcinoma; SKBR3 is a human epithelial cell line established from a breast adenocarcinoma; both NCI-N87 and SKBR3 cell lines express high levels of HER2 receptor.
One day prior to treatment with compounds or IGAC, cells were plated in white 96-well plates (SKBR: 3000 cells/well; CAL-51: 4000 cells/well). Compounds or ADCs were added in a serial-dilution manner reaching the indicated concentrations. […]

WSU-DLCL2 cells = experiment: Cell proliferation (Cell Titer Glow), WSU-DLCL2; type: cell-based; conditions: Homo sapiens, WSUDLCL2; IG compounds, cell killing, 72 h
Method: as §5, §6
On the day of treatment, 10,000 suspension cells/well were plated in white 96-well plates. Compounds or ADCs were added in a serial-dilution manner reaching the indicated concentrations. Plates were incubated at 37 degrees for 72 h whereafter a 1:10 dilution of Cell Titer Glow was used to measure relative cell numbers after 10 min of incubation at room temperature.

DC50 (CAL51 cells [2]) [nM] | DC50 (SKBR3 cells [3]) [nM] | SMILES | IC50 (CAL51 cells [1]) [nM] | Dmax (CAL51 cells [2]) [%] | Dmax (SKBR3 cells [3]) [%] | IC50 (SKBR3 cells [4]) [nM] | IC50 (NCI-N87 cells) [nM] | IC50 (WSU-DLCL2 cells) [nM]
3.24 ± 2.18 | < 0.7 | Cc1ccc(NC(=O)NCc2ccc3c(c2)CN(C2CCC(=O)NC2=O)C3=O)cc1Cl (stereo not shown) [IG-1, 1-(3-chloro-4-methyl-phenyl)-3-[[2-(2,6-dioxo-3-piperidyl)-1-oxo-isoindolin-5-yl]methyl]urea] | 10.8 | 101 ± 4.45 | 95.5 ± 4.9 | 1.77 | 1.48 | 1.23
6.21 | < 0.645 | Cc1ccc(NC(=O)NCc2ccc3c(c2O)CN(C2CCC(=O)NC2=O)C3=O)cc1C(C)C (stereo not shown) [IG-50] |  | 105 | 99.6 ± 0.614 | 1.38 | 1.63 | 0.75
81.4 | 42.7 | O=C1CCC(N2Cc3c(ccc(CNC(=O)Nc4ccc5ccccc5c4)c3O)C2=O)C(=O)N1 (stereo not shown) [IG-39, 1-((2-(2,6-dioxopiperidin-3-yl)-4-hydroxy-1-oxoisoindolin-5-yl)methyl)-3-(naphthalen-2-yl)urea] |  | 69.4 | 77.4 | 14.1 |  | 
 |  | O=C1CCC(N2Cc3c(ccc(CNC(=O)C(F)(F)c4ccc(Cl)cc4)c3O)C2=O)C(=O)N1 (stereo not shown) [IG-52, 2-(4-chlorophenyl)-N-((2-(2,6-dioxopiperidin-3-yl)-4-hydroxy-1-oxoisoindolin-5-yl)methyl)-2,2-difluoroacetamide] |  |  |  | 443 |  | > 2000
345 ± 135 | 185 | CNCCOCCc1ccc(NC(=O)NCc2ccc3c(c2)CN(C2CCC(=O)NC2=O)C3=O)cc1Cl (stereo not shown) [IG-3, 1-(3-chloro-4-(2-(2-(methylamino)ethoxy)ethyl)phenyl)-3-((2-(2,6-dioxopiperidin-3-yl)-1-oxoisoindolin-5-yl)methyl)urea] | 3010 | 79.4 ± 3.63 | 78.2 | 77.5 |  | 66.4
 |  | CNCCOCCc1ccc(NC(=O)CCc2ccc3c(c2)CN(C2CCC(=O)NC2=O)C3=O)cc1Cl (stereo not shown) [IG-2, N-(3-chloro-4-(2-(2-(methylamino)ethoxy)ethyl)phenyl)-3-(2-(2,6-dioxopiperidin-3-yl)-1-oxoisoindolin-5-yl)propenamide] | > 10000 | < 5 |  | > 10000 |  | > 10000
< 5.41 | 2 | O=C1CCC(N2Cc3c(ccc(CNC(=O)Nc4cccc(C5(C(F)(F)F)CC5)c4)c3O)C2=O)C(=O)N1 (stereo not shown) [IG-42, 1-((2-(2,6-dioxopiperidin-3-yl)-4-hydroxy-1-oxoisoindolin-5-yl)methyl)-3-(3-(1-(trifluoromethyl)cyclopropyl)phenyl)urea] | 25 | 96.1 ± 5.89 | 88.6 | 2.73 | 2.57 | 1.43
 |  | CC(C)(C)c1ccc(NC(=O)NCc2ccc3nnn(C4CCC(=O)NC4=O)c(=O)c3c2)c(O)c1 (stereo not shown) [IG-49, 1-(4-(tert-butyl)-2-hydroxyphenyl)-3-((3-(2,6-dioxopiperidin-3-yl)-4-oxo-3,4-dihydrobenzo[d][1,2,3]triazin-6-yl)methyl)urea] |  |  |  | 41.7 |  | 
46.9 | 5.2 | CC(C)(C)c1ccccc1NC(=O)NCc1ccc2c(c1O)CN(C1CCC(=O)NC1=O)C2=O (stereo not shown) [IG-28, 1-(2-(tert-butyl)phenyl)-3-((2-(2,6-dioxopiperidin-3-yl)-4-hydroxy-1-oxoisoindolin-5-yl)methyl)urea] | 22.5 | 94.2 | 90.2 |  |  | 
118 ± 35 | 52.2 | Cc1ccc(NC(=O)NCc2ccc3c(c2)CN(C2CCC(=O)NC2=O)C3=O)cc1O (stereo not shown) [IG-12, 1-((2-(2,6-dioxopiperidin-3-yl)-1-oxoisoindolin-5-yl)methyl)-3-(3-hydroxy-4-methylphenyl)urea] | 1250 | 96.8 ± 4.12 | 98.3 |  |  | 
 |  | O=C1CCC(N2Cc3c(ccc(CNC(=O)Nc4ccc(Br)c(Cl)c4)c3O)C2=O)C(=O)N1 (stereo not shown) [IG-40, 1-(4-bromo-3-chlorophenyl)-3-((2-(2,6-dioxopiperidin-3-yl)-4-hydroxy-1-oxoisoindolin-5-yl)methyl)urea] |  |  |  | 21.3 |  | 
113 | 10.6 | O=C1CCC(N2Cc3c(ccc(CNC(=O)Nc4cccc5ccccc45)c3O)C2=O)C(=O)N1 (stereo not shown) [IG-38, 1-((2-(2,6-dioxopiperidin-3-yl)-4-hydroxy-1-oxoisoindolin-5-yl)methyl)-3-(naphthalen-1-yl)urea] | 35.9 | 93.7 | 94.1 |  |  | 
35.8 ± 20.4 | < 2.26 | Cc1ccc(NC(=O)NCc2ccc3c(c2O)CN(C2CCC(=O)NC2=O)C3=O)cc1Cl (stereo not shown) [IG-15, 1-(3-chloro-4-methylphenyl)-3-((2-(2,6-dioxopiperidin-3-yl)-4-hydroxy-1-oxoisoindolin-5-yl)methyl)urea] | 54.9 | 79.2 ± 9.1 | 91.1 ± 3.35 | 5.19 |  | 4.25
 |  | CC(C)c1cc(NC(=O)NCc2ccc3c(c2O)CN(C2CCC(=O)NC2=O)C3=O)ccc1C(F)(F)F (stereo not shown) [IG-51, 1-((2-(2,6-dioxopiperidin-3-yl)-4-hydroxy-1-oxoisoindolin-5-yl)methyl)-3-(3-isopropyl-4-(trifluoromethyl)phenyl)urea] |  |  |  | 15.7 |  | 10.2
 |  | O=C1CCC(N2Cc3c(ccc(CNC(=O)Nc4ccc(I)c(Cl)c4)c3O)C2=O)C(=O)N1 (stereo not shown) [IG-41, 1-(3-chloro-4-iodophenyl)-3-((2-(2,6-dioxopiperidin-3-yl)-4-hydroxy-1-oxoisoindolin-5-yl)methyl)urea] | 25 |  |  | 17.1 |  | 
 |  | Cc1c(Cl)cc(NC(=O)NCc2ccc3c(c2)CN(C2CCC(=O)NC2=O)C3=O)cc1N1CCOC1=O (stereo not shown) [IG-54, 1-(3-chloro-4-methyl-5-(2-oxooxazolidin-3-yl)phenyl)-3-((2-(2,6-dioxopiperidin-3-yl)-1-oxoisoindolin-5-yl)methyl)urea] |  |  |  | 14.5 |  | 6.9
139 | 7.88 | Cc1ccc(C(=O)C(=O)NCc2ccc3c(c2O)CN(C2CCC(=O)NC2=O)C3=O)cc1Cl (stereo not shown) [IG-37, 2-(3-chloro-4-methylphenyl)-N-((2-(2,6-dioxopiperidin-3-yl)-4-hydroxy-1-oxoisoindolin-5-y1)methyl)-2-oxoacetamide] | 72.5 | 70.9 | 95.2 | 4.2 |  | 9.6
660 ± 997 | 4.62 | Cc1ccc(NC(=O)NCc2cc3c(cc2O)C(=O)N(C2CCC(=O)NC2=O)C3)cc1Cl (stereo not shown) [IG-36, 1-(3-chloro-4-methylphenyl)-3-((2-(2,6-dioxopiperidin-3-yl)-6-hydroxy-1-oxoisoindolin-5-yl)methyl)urea] | 120 | 78.5 ± 8.18 | 91.8 | 3.5 |  | 4.95
